Experimental data reported in ChEMBL document CHEMBL4706679, “Targeting Necrosis: Elastase-like Protease Inhibitors Curtail Necrotic Cell Death Both In Vitro and in Three In Vivo Disease Models” (J Med Chem, 2021).
The source made the active and inactive calls. The rule behind the calls is not given here. Where a SMILES comes first, the peptide text is derived from it. The star is where a group is joined. MeOSuc = COC(=O)CCC(=O)*; Cbz = O=C(OCc1ccccc1)*; CH2Cl = ClC*

What was measured:
U-937 [1] = assay: Inhibition KCN-induced elastase like activity in human U-937 cells using substrate MAAPV; assay type: cell-based
PC-12 [2] = assay: Protection against KCN-induced necrosis in […] cells assessed as reduction in KCN-induced cell death at 20 to 100 uM incubated for 5 hrs by LDH release assay; assay type: functional, cell-based; details: dose 20-100 µM
U-937 [3] = assay: Inhibition oligomycin-induced elastase like activity in human U-937 cells at 100 uM by substrate gel electrophoresis; assay type: cell-based
U-937 [4] = assay: Inhibition anti-Fas antibody-induced elastase like activity in human U-937 cells at 100 uM by substrate gel electrophoresis; assay type: cell-based
PC-12 [5] = assay: Protection against KCN-induced necrosis in […] cells assessed as reduction in KCN-induced cell death at 10 to 300 uM incubated for 5 hrs by LDH release assay; assay type: functional, cell-based; details: dose 10-300 µM
Mus musculus [6] = assay: Protection against necrosis in C57BL/6J mouse model of paracetamol-induced […] assessed as reduction in liver GOT levels at 30 mg/kg, ip dosed 4 hrs after paracetamol injection and measured 24 hrs post paracetamol injection by; assay type: functional; design: scale not given: the % may be the effect or the level left; details: time 28 hrs
Mus musculus [7] = assay: Protection against necrosis in C57BL/6J mouse model of paracetamol-induced […] assessed as reduction in liver AST levels at 30 mg/kg, ip dosed 4 hrs after paracetamol injection and measured 24 hrs post paracetamol injection by; assay type: functional; design: scale not given: the % may be the effect or the level left; details: time 28 hrs
Mus musculus [8] = assay: Protection against necrosis in C57BL/6J mouse model of paracetamol-induced […] assessed as reduction in liver GPT levels at 10 mg/kg, ip dosed 4 hrs after paracetamol injection and measured 24 hrs post paracetamol injection by; assay type: functional, organism-based; details: time 28.0 hrs
Mus musculus [9] = assay: Protection against necrosis in C57BL/6J mouse model of paracetamol-induced […] assessed as reduction in liver AST levels at 10 mg/kg, ip dosed 4 hrs after paracetamol injection and measured 24 hrs post paracetamol injection by; assay type: functional, organism-based; details: time 28.0 hrs
Mus musculus [10] = assay: Protection against necrosis in C57BL/6J mouse model of paracetamol-induced […] assessed as reduction in liver GPT levels at 30 mg/kg, ip dosed 4 hrs after paracetamol injection and measured 24 hrs post paracetamol injection by; assay type: functional; design: scale not given: the % may be the effect or the level left; details: time 28 hrs
Mus musculus [11] = assay: Protection against necrosis in C57BL/6J mouse model of paracetamol-induced […] assessed as reduction in liver ALT levels at 10 mg/kg, ip dosed 4 hrs after paracetamol injection and measured 24 hrs post paracetamol injection by; assay type: functional, organism-based; details: time 28.0 hrs
Mus musculus [12] = assay: Protection against necrosis in C57BL/6J mouse model of paracetamol-induced […] assessed as reduction in liver ALT levels at 30 mg/kg, ip dosed 4 hrs after paracetamol injection and measured 24 hrs post paracetamol injection by; assay type: functional; design: scale not given: the % may be the effect or the level left; details: time 28 hrs
Mus musculus [13] = assay: Protection against necrosis in C57BL/6J mouse model of paracetamol-induced […] assessed as reduction in liver GOT levels at 10 mg/kg, ip dosed 4 hrs after paracetamol injection and measured 24 hrs post paracetamol injection by; assay type: functional, organism-based; details: time 28.0 hrs
Mus musculus [14] = assay: Protection against necrosis in C57BL/6J mouse model of traumatic brain injury assessed as decrease in neuronal damage in brain at 100 ug, icv measured 1 hr post injury by neurological severity score based analysis; assay type: functional, organism-based; details: dose 100.0 µg
[15] = Toxicity in sham control C57BL/6J mouse at 100 ug, icv; details: in vivo, icv_or_intrathecal, dose 100 µg
Mus musculus [16] = assay: Protection against necrosis in C57BL/6J mouse model of traumatic brain injury assessed as decrease in necrotic space in brains at 100 ug, icv measured 24 hrs post injury by TTC staining based analysis; assay type: functional; design: scale not given: the % may be the effect or the level left; details: dose 100 µg
U-937 [17] = assay: (§1) Inhibition KCN-induced elastase like activity in human U-937 cells at 0.01 to 100 uM using substrate MAAPV; assay type: cell-based; details: dose 0.01-100 µM
[18] = as §1; assay type: cell-based
Mus musculus [19] = assay: Protection against necrosis in Balb/c mouse model of model of myocardial infarction/reperfusion assessed as reduction in infarct size at 30 mg/kg, iv followed by ischemia and reperfusion and subsequent second dosing at 30 mg/kg, iv and measured after 6 hrs post reperfusion by TTC staining based analysis; assay type: functional; design: scale not given: the % may be the effect or the level left; details: dose 60 mg/kg

For CCOC(=O)[C@H]1O[C@@H]1C(=O)N[C@@H](CC(C)C)C(=O)NCCC(C)C, the inhibition (U-937 [1]) was “inactive”.
In the case of CC(C)(C)C(=O)Oc1ccc(S(=O)(=O)Nc2ccccc2C(=O)NCC(=O)O)cc1, the Activity (PC-12 [2]) is reported as “Dose-dependent effect”.
For Cc1ccc(S(=O)(=O)N[C@@H](Cc2ccccc2)C(=O)CCl)cc1, the inhibition (U-937 [3]) was “inactive” and the inhibition (U-937 [4]) was “inactive”.
With CC(C)C[C@H](NC(=O)N[C@H](C(=O)N[C@@H](CCC(N)=O)C(=O)N[C@@H](C)C=O)C1CCNC(=N)N1)C(=O)O (some centres undefined) the inhibition (U-937 [3]) was “Active”, the Activity (PC-12 [5]) was “inactive” and the inhibition (U-937 [4]) was “Active”.
For O=C(c1csc(N2CCCCC2)n1)N1CCCC1, the Activity (Mus musculus [6]) was 100%, the Activity (Mus musculus [7]) was 100% and the Activity (Mus musculus [8]) was “Active”. For the same molecule, the Activity (Mus musculus [9]) was “Active”, the Activity (Mus musculus [10]) was 100% and the Activity (Mus musculus [11]) was “Active”. The Activity (Mus musculus [12]) was 100% and the Activity (Mus musculus [13]) was “Active”.
With COC(=O)CCC(=O)N[C@@H](C)C(=O)N[C@@H](C)C(=O)N1CCC[C@H]1C(=O)N[C@H](C(=O)CCl)C(C)C (MeOSuc-AAPV-CH2Cl) the Activity (Mus musculus [14]) was “Active”, the Activity [15] was “Non-Toxic” and the Activity (PC-12 [5]) was “Dose-dependent effect”. The Activity (Mus musculus [16]) was 50%, the inhibition (U-937 [17]) was “Dose-dependent effect” and the IC50 [18] was 2740 nM.
In the case of CCC(=O)N1CCN=C1N1CCN(C)CC1, the Activity (Mus musculus [19]) is reported as 30%.
In the case of CN1C(=O)Cc2ccc(-c3ccc(C[C@@H](C#N)NC(=O)[C@H]4N[C@@H]5CC[C@H]4C5)c(F)c3)cc21, the Activity (PC-12 [5]) is reported as “Dose-dependent effect”.
For O=C[C@H](Cc1ccc(O)cc1)NC(=O)[C@H](Cc1ccccc1)NC(=O)OCc1ccccc1 (Cbz-Phe-Tyr-aldehyde), the inhibition (U-937 [1]) was “inactive”.
